Data taken from patent publication US9125415B2, “Thiophene based oligomers as light activated biocides” (STC, UNM, priority 2011, dated 2015).
Marks after values point to notes of the source that are not given here.

How the values were obtained:
[1] = tested on: Staphylococcus aureus (ATCC 10832); test: Antibacterial studies, dead/live assay by flow cytometry (SYTO21 / propidium iodide); type: cell-based; conditions: for dark antibacterial activity / dark toxicity (in words) / light-dependent toxicity versus the bacterial cells (in words) / percentage of killed S. aureus cells: 1 μg/mL oligomer; for dark antibacterial activity / dark toxicity (in words) / light-dependent toxicity versus the bacterial cells (in words): up to 90 min
Excerpt: There has been an increasing interest in the prevention of staphylococcal infections because of the increasing number of infections caused by methicillin-resistant S. aureus (MRSA), which is the most common cause of hospital-acquired infections. Our previous studies with oligo (phenylene ethynylene) type oligomers have clearly established that these oligomers are effective against variety of bacteria in the presence of light. […] As our objective is to develop visible light activated biocidal oligomers, we investigated the antibacterial activity of compounds 4a-c and against Staphylococcus aureus (S. aureus). After oligomer solutions were incubated with S. aureus under visible light illumination or in the dark, the antibacterial effect of the three oligomers was evaluated at time 0, 15, 30, 45, 60, and 90 min by flow cytometry analysis after staining the bacterial suspensions with live/dead fluorescent dyes (SYTO21, green fluorescence=live, and propidium iodide, red fluorescence=dead). FIGS. 7 and 8 show plots of the percentage of dead bacteria cells versus light exposure time of the thiophene-based oligomeric series at […]. […] The antibacterial efficiency of three oligomers increases with increasing irradiation time. In the control sample where oligomers were not added to the bacterial suspension most cells (>90% as shown in flow cytometry data) were viable and appear green fluorescence. Dark antibacterial activity was not observed from 4a and 4b; however, 4c kills ˜27% of bacteria after 90 min of incubation of bacteria with 4c.
Staphylococcus aureus (ATCC 10832, American Type Culture Collection) was grown in Brain Heart Infusion (BHI, Difco) and stored at […] with 20% (v/v) glycerol (EMD) before use. Stock cultures maintained on agar plates (2%, Difco) were used to inoculate 50 mL cultures in liquid BHI. The cultures were incubated at 37° C. for 18 hours. The bacteria were then centrifuged and washed twice with 0.85% NaCl followed by counting in a hemocytometer to normalize bacterial concentration in 20 mL of 0.85% NaCl (8×10^6 cells/mL) for antibacterial tests. Control samples containing only bacterial cells, and desired concentrations of oligomer/bacteria mixture samples were exposed to the visible light for 15, 30, 45, 60 and 90 min in a LuzChem ORG photoreactor using Sylvania T5 bulbs (λ=350-799 nm). Another set of samples were incubated in the dark for 15, 30, 45, 60 and 90 min. Then dead/live assays were conducted using SYTO21 (green fluorescence=live) and propidium iodide (red fluorescence=dead) purchased from Invitrogen. After bacteria were incubated with the oligomers in the light and dark conditions, a 1:1 ratio of dyes (2.4 μL) were added to the samples and kept in the dark for 15 min. Finally, the bacteria were examined using an Accuri C6 flow cytometer where 2×10^4 cells were analyzed from 8×10^6 cell solution. The number of live cells and dead cells corresponding to green and red fluorescence respectively were counted and compared by flow cytometry. Results are shown graphically in FIGS. 7 and 8.

[2] = Transient absorption spectroscopy (triplet excited state); type: physicochemical; conditions: for TTAbs (ΔA, t = 0): methanol, Abs=0.7 at λex, λex=355 nm for 4a and 4b, 425 nm for 4c, immediately following the laser pulse
Procedure: Transient absorption experiments were carried out both in methanol and in water (excitation at 355 nm, 5 ns pulse, […] fluence). […] The important photophysical data obtained in methanol solution are consolidated in Table 1 (see supporting information for data in aqueous solution). FIGS. 5 and 6 compare transient absorption difference spectra obtained immediately following the laser pulse in methanol. […] Pulse energy and ground state absorption matched. […] The response curves from each of the repetitive time increments is indicated by sequential numbers 1-8 in both FIGS. 6A and 6B. Samples were purged with argon for 45 min before the measurements. A higher life time is observed for the triplet excited state in water than in methanol.
(§1) NMR spectra were recorded using a Varian VXR-300 FT-NMR, operating at 300 MHz for ^1H NMR and at 75.4 MHz for ^13C NMR. UV-Visible spectra were recorded using a Varian Cary 100 dual beam spectrophotometer. Corrected steady-state fluorescence spectra were obtained with a PTI spectrometer. A 1 cm square quartz cuvette was used for solution spectra, and emission was collected at 90° relative to excitation beam. Fluorescence quantum yields are reported relative to known standards. The optical density of solutions at the excitation wavelength was ≦0.1, and corrections were applied for differences in the refractive index of standard and sample solutions. Transient absorption spectra were collected using a laser systems that is described elsewhere.^17,18 The optical density of the solutions was adjusted to ˜0.7 at the excitation wavelength (355 nm) with the laser energy set at 6-7 mJ. Solutions were purged with argon for 45 min before making transient absorption spectroscopy measurements. Singlet oxygen quantum yields were measured using a Photon Technology International Quantamaster near-IR spectrophotometer equipped with an InGaAs photodiode detector, optical chopper and a lock in amplifier.

[3] = UV-Visible absorption spectra; type: physicochemical; conditions: for λmax (absorption): MeOH; for λmax (Absorption/nm): Water
Procedure: as §1

[4] = Singlet oxygen quantum yield (sensitization, emission at 1260 nm); type: physicochemical; conditions: CD3OD; 2′-acetonaphthone (ΦΔ = 0.79) as actinometer
Excerpt: The important and necessary feature of the biocidal agents triggered by light is their ability to sensitize the formation of singlet oxygen. Having established the formation of triplet state by direct excitation of the oligomers 4a and 4b (but not 4c), we determined their ability to sensitize singlet oxygen in deuterated methanol (ΦΔ, Table 1). […] From the above results it is evident that the oligomer with terthiophene back bone is the most efficient sensitizer for singlet oxygen.
as §1

[5] = Steady-state fluorescence spectra and fluorescence quantum yields relative to known standards; type: physicochemical
Procedure: as §1

[6] = tested on: Staphylococcus aureus (ATCC 10832); test: Antibacterial studies, dead/live assay by flow cytometry (SYTO21 / propidium iodide); type: cell-based; conditions: visible light substituted with UV light
Fluorescence lifetime = type: physicochemical; conditions: component amplitude in brackets
[7] = visible light, 90 min of irradiation
[8] = MeOH, quinine sulfate in 0.1M sulfuric acid (ΦF = 0.54) as actinometer
[9] = Water, quinine sulfate in 0.1M sulfuric acid (ΦF = 0.54) as actinometer

Structure (SMILES) | dark antibacterial activity / dark toxicity (in words) ([1]; dark) | light-dependent toxicity versus the bacterial cells (in words) ([1]; visible light) | percentage of killed S. aureus cells [1, 7] | TTAbs (λ/nm)/MeOH [2] | TTAbs (λ/nm) in Water ([2]; Water) | TTAbs (ΔA, t = 0) [2] | λmax (absorption) [3] | λmax (Absorption/nm) [3] | ΦΔ (singlet oxygen quantum yield) [4] | λmax (fluorescence) ([5]; MeOH) | ΦF (fluorescence quantum yield) [5, 8] | λmax (Fluorescence/nm) ([5]; Water) | ΦF (fluorescence quantum yield) [5, 9] | other results
Cn1nc2c(-c3ccc(CCC[N+](C)(C)C)s3)ccc(-c3ccc(CCC[N+](C)(C)C)s3)c2n1.[Cl-].[Cl-] [4b] | not observed | marked light-dependent toxicity | about 35% | 492 nm | 492 nm | 0.39 | 390 nm | 385 nm | 0.49 ± 0.03 | 460 nm | 0.51 ± 0.02 | 460 nm | 0.340 ± 0.02 | 
C[N+](C)(C)CCCc1ccc(-c2ccc(-c3ccc(CCC[N+](C)(C)C)s3)s2)s1.[Cl-].[Cl-] [4a] | not observed | marked light-dependent toxicity | ~93% | 467 nm | 467 nm | 0.55 | 364 nm | 368 nm | 0.74 ± 0.02 | 437 nm | 0.06 ± 0.02 | 437 nm | 0.058 ± 0.02 | biocidal activity at higher concentrations (in words) ([1]; in the presence of light, 5 and 10 μg/mL): virtually eliminates the bacterial population within a few minutes; concentration at which the compound is an effective biocide ([1]; in the presence of light, within 30 minutes): ≥ 1 µg/mL; TTAbs (ΔA, t = 0) in Water ([2]; Water): 0.43; τtriplet (μs) in Water ([2]; Water): 17.9 μs; shift of absorption in water compared to methanol ([3]; red shift for 4a, blue shift for 4b and 4c): ~4 nm; light activated antibacterial activity under UV light (in words) [6]: the most efficient compound in killing bacteria in the presence of light; τF/ns (MeOH) (Fluorescence lifetime; MeOH, 4a at 450 nm): 0.18 ns; τF/ns (Water) (Fluorescence lifetime; Water, 4a 450 nm, 4b 500 nm, 4c 600 nm): 0.19 ns
C[N+](C)(C)CCCc1ccc(-c2ccc(-c3ccc(CCC[N+](C)(C)C)s3)c3nsnc23)s1.[Cl-].[Cl-] [4c] | significant dark toxicity | marked light-dependent toxicity | about 35% | 529 nm | 529 nm |  |  | 454 nm | no singlet oxygen emission was detected | 615 nm |  | 610 nm |  | percentage of killed S. aureus cells ([1]; dark, 90 min of incubation): ~27%; ΦF (fluorescence quantum yield) ([5]; MeOH, fluorescein in 0.1M NaOH (ΦF = 0.92) as actinometer): 0.23 ± 0.02^b
